Format in all cases: cell-based
Assay [1] addresses T1, MRGPRX2 (Homo sapiens, UniProt Q96LB1).
T1 sequence (Q96LB1 1-330): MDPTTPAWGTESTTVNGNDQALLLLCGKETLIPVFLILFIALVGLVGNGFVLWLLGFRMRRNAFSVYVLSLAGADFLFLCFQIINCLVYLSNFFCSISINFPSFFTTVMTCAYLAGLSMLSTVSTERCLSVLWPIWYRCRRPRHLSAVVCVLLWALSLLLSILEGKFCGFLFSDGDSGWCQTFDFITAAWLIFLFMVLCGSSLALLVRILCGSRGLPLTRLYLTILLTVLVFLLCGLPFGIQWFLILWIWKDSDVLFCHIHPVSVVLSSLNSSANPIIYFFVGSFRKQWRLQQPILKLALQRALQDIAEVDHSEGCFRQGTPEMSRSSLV
Put plainly: MRGPRX2 β-Arrestin recruitment assay (PathHunter). On the set-up: host or cells: CHO-K1 (PathHunter). Conditions: PathHunter CHO-K1 MRGPRX2 β-Arrestin cell line; agonist Cortistatin 14 0.25 μM. The text has this: Example C: MRGPRX2 P-Arrestin Assay
This assay measures compound inhibition of P-Arrestin recruitment, which is part of the G protein-independent pathway that results from the ligand-activated GPCR phosphorylation by specific GPCR kinases. The PathHunter CHO-K1 MRPGRX2 B-Arrestin Cell line stably expressing ProLink tagged MRGPRX2 and Enzyme Acceptor Tagged B-Arrestin was purchased from Eurofins DiscoverX, (Fremont, CA).
The cells were maintained in culture medium from the Europhins DiscoverX Cell Culture Kit-107 which includes FBS, hygromycin B and G418. For the assay, the cells were harvested and were resuspended with Cell Plating Reagent 2 (Eurofins DiscoverX). Cells were added 10000 cells in 25 μL/well to a 384-well black cell culture plate (Greiner VWR, Radnor, PA) which contained 125 nL/well of compound at a selected serially diluted concentration range or DMSO. The plate was incubated at 37° C. with 5% CO2 for 1 h. 2 μL/well of agonist Cortistatin 14 was diluted in Protein Dilution Buffer, (Eurofins DiscoverX) for a final concentration of 0.25 μM, was added and the plate was incubated at 37° C. with 5% CO2 for 90 min. 14 μL/well of Detection Reagent Mix (PathHunter Detection Kit, Eurofins DiscoverX) was added to the plates and further incubated for 1 h in the dark. Plates were read on the PHERAstar microplate reader (BMG Labtech Cary, NC) measuring luminescence 0.1 to 1 second per well. Data was normalized using DMSO only wells and wells with high concentration of reference antagonist as controls. Compound IC50 curves were globally fitted with 3- or 4-parameter Hill equation in a Genedata Screener (Genedata Basel, Switzerland).

Assay [2] addresses T1, MRGPRX2. Put plainly: MRGPRX2 FLIPR calcium mobilization assay. Also noted: host or cells: CHO-K1. Conditions: CHO-K1 cells stably expressing human MRGPRX2; Ca2+ release; agonist Cortistatin-14 at EC80. How it is done:
Example A. MRGPRX2 FLIPR Calcium Mobilization Assay
Chinese hamster ovary (CHO-K1) cells stably expressing human MRGPRX2 were purchased from Genescript (Piscataway, NJ). The cells were maintained in culture medium (Ham's F-12K) containing 10% (v/v) FBS, 200 μg/mL Zeocin, 100 units/mL penicillin G and 100 μg/mL streptomycin (Life Technologies, Carlsbad, CA). For the assay, the cells were harvested and resuspended with culture medium without Zeocin before plating at 8000 cells per well in 20 μL in 384-well black clear bottom cell culture plates (VWR, Radnor, PA). After 24 hour culture at 37° C. and 5% CO2, the cells were loaded with 20 μL/well of calcium dye (FLIPR Calcium 6 Assay Kit, Molecular Devices, San Jose, CA) diluted in loading buffer (1× Hank's Balanced Salt Solution (HBSS), 5 mM probenecid, 20 mM 4-(2-hydroxyethyl)-1-piperazineethanesulfonic acid (HEPES), pH 7.4, VWR, Radnor, PA) followed with 45 min. incubation at 37° C. and 40 min. at r.t. in the dark. Cells were then treated with the addition of 10 uL/well test compounds with a range of increasing concentrations diluted in the assay buffer (1×HBSS, 20 mM HEPES, pH 7.4, VWR, Radnor, PA) with FLIPR Penta (Molecular Devices. San Jose, CA) and incubated for 30 min. at r.t. Ca^2+ release was measured with FLIPR Penta with 10 seconds basal fluorescence measurement, then 12.5 μL of 5× agonist Cortistatin-14 (Tocris, Minneapolis, MN) at final concentration corresponding to the EC80 were added followed with continued fluorescence signal monitoring for an additional 110 seconds. The base line adjusted (median of first 10s base line) max value of the Relative Fluorescence Unit (RFU) was plotted against compound concentrations. Wells with no compound were served as the positive controls, and wells with high concentration of reference antagonist were used as negative controls. IC50 curves were globally fitted with 3- or 4-parameter Hill equation in a Genedata Screener (Genedata Basel, Switzerland).

For assay [3], the target named is T1, MRGPRX2. Put plainly: MRGPRX2 IP1 HTRF assay. Also noted: host or cells: CHO-K1. Conditions: CHO-K1 cells stably expressing human MRGPRX2; IP1 accumulation; agonist Cortistatin 14 1 μM. The text has this:
Example B: MRGPRX2 IP1 HTRF Assay
This assay measures compound inhibition of myo-Inositol 1 phosphate (IP1) accumulation in CHO-K1 cells. Chinese hamster ovary (CHO-K1) cells stably expressing human MRGPRX2 were purchased from GenScript (Piscataway, NJ).
For the HTRF IP1 determination, an IP-One GqKit (Perkin Elmer Cisbio, Waltham, MA), which includes all reagents and buffers in this protocol, was used. The cells were maintained in culture medium (Ham's F-12K) containing 10% (v/v) FBS, and 200 μg/mL Zeocin. For the assay, the cells were harvested and resuspended in culture medium with 2% FBS and without Zeocin, then were passed through a 40 μm filter. Cells were added at 20000 cells in a 5 μL/well to a 384-well white small volume cell culture plate (Greiner VWR, Radnor, PA) which contained 50 nL/well of test compound serially diluted at a selected concentration range in DMSO. 5 μL/well of prepared 2× Stimulation Buffer2 was then added to plates and was incubated at 37° C. with 5% CO2 for 1 h. 5 μL/well of agonist Cortistatin 14 (Bio-TechneR&D Systems, Minneapolis, MN) in 1× Stimulation Buffer2, for a 1 μM final concentration, was then added to plates and incubated at 37° C. with 5% CO2 for 1 h. 6 μL/well of 1:20 diluted Detection Reagent Mix (d2 and Cryptate) was added to the plates and incubated for 1 h in the dark. Plates were read on the PHERAstar microplate reader (BMG Labtech Cary, NC) to determine the HTRF ratio of the acceptor and donor emission signals. The IP1 concentrations were calculated from a standard curve following the IP-One GQ kit instructions. Wells with DMSO only and wells with high concentration of reference antagonist were used as controls for normalization. Compound IC50 curves were globally fitted with 3- or 4-parameter Hill equation in a Genedata Screener (Genedata Basel, Switzerland).

As for `FC(F)(F)c1cc(NCC2(c3ccccc3)CC=CC2)n2nc(Br)cc2n1` [Example 82, 2-Bromo-N-((1-phenylcyclopent-3-en-1-yl)methyl)-5-(trifluoromethyl)pyrazolo[1,5-a]pyrimidin-7-amine], the concentration for half-maximal inhibition (IC50) on MRGPRX2 [1] and at MRGPRX2 [2] was 0.1 to 100 nM in each case.

In the case of `Cc1cc2nc(I)cc(NCC3(c4ccccc4)CCOC3)n2n1` (centres unmarked) [Example 78, 5-Iodo-2-methyl-N-((3-phenyltetrahydrofuran-3-yl)methyl)pyrazolo[1,5-a]pyrimidin-7-amine], the concentration for half-maximal inhibition (IC50) on MRGPRX2 [2] was in the range of 100 to 1000 nM.

`N#Cc1cc2nc(C(F)(F)F)cc(NCC3(n4cccn4)CN(S(N)(=O)=O)C3)n2n1` [Example 95, 3-(((2-Cyano-5-(trifluoromethyl)pyrazolo[1,5-a]pyrimidin-7-yl)amino)methyl)-3-(1H-pyrazol-1-yl)azetidine-1-sulfonamide]: the IC50 at MRGPRX2 [2] fell in the range of 0.1 to 100 nM.

Turning to `CN(C)c1cc(NCC2(c3ccc(F)cc3)CN(S(N)(=O)=O)C2)n2nc(C(F)(F)F)cc2n1` [Example 105, 3-(((5-(Dimethylamino)-2-(trifluoromethyl)pyrazolo[1,5-a]pyrimidin-7-yl)amino)methyl)-3-(4-fluorophenyl)azetidine-1-sulfonamide], the IC50 at MRGPRX2 [2] is 0.1 to 100 nM.

As for `O=C(N[C@H]1CC[C@](O)(C(F)(F)F)CC1)N1CC(CNc2cc(C(F)(F)F)nc3cc(C(F)(F)F)nn23)(c2ccc(F)cc2)C1` [Example 54, 3-(((2,5-Bis(trifluoromethyl)pyrazolo[1,5-a]pyrimidin-7-yl)amino)methyl)-3-(4-fluorophenyl)-N-((1s,4s)-4-hydroxy-4-(trifluoromethyl)cyclohexyl)azetidine-1-carboxamide], the IC50 at MRGPRX2 [3] and on MRGPRX2 [1] was 0.1 to 100 nM in each case.

On to `O=C(N[C@@H]1CC[C@@H](O)C1)N1CCC(CNc2cc(C(F)(F)F)nc3cc(C(F)(F)F)nn23)(c2ccc(F)cc2)CC1` [Example 56, 4-(((2,5-Bis(trifluoromethyl)pyrazolo[1,5-a]pyrimidin-7-yl)amino)methyl)-4-(4-fluorophenyl)-N-((1R,3R)-3-hydroxycyclopentyl)piperidine-1-carboxamide], for which the IC50 at MRGPRX2 [3] and on MRGPRX2 [1] was 0.1 to 100 nM each time.

Take `CCc1cc(NCC2(c3ccc(F)cc3)CN(C(=O)NCC(F)(F)F)C2)n2nc(C(F)(F)F)cc2n1` [Example 71, 3-(((5-Ethyl-2-(trifluoromethyl)pyrazolo[1,5-a]pyrimidin-7-yl)amino)methyl)-3-(4-fluorophenyl)-N-(2,2,2-trifluoroethyl)azetidine-1-carboxamide]: the IC50 at MRGPRX2 [3] and at MRGPRX2 [1] was 0.1 to 100 nM throughout.

`O=C(N[C@H]1CC[C@@H]1O)N1CC(CNc2cc(C(F)(F)F)nc3cc(C(F)(F)F)nn23)(c2ccc(F)cc2)C1` [Example 93, 3-(((2,5-Bis(trifluoromethyl)pyrazolo[1,5-a]pyrimidin-7-yl)amino)methyl)-3-(4-fluorophenyl)-N-((1S,2S)-2-hydroxycyclobutyl)azetidine-1-carboxamide]: the IC50 at MRGPRX2 [3] and at MRGPRX2 [1] was 0.1 to 100 nM in each case.

Consider `CC(C)(O)[C@H]1CC[C@H](NC(=O)N2CC(CNc3cc(C(F)(F)F)nc4cc(C(F)(F)F)nn34)(c3ccc(F)cc3)C2)CC1` [Example 55, 3-(((2,5-Bis(trifluoromethyl)pyrazolo[1,5-a]pyrimidin-7-yl)amino)methyl)-3-(4-fluorophenyl)-N-((1r,4r)-4-(2-hydroxypropan-2-yl)cyclohexyl)azetidine-1-carboxamide], for which the IC50 on MRGPRX2 [3] and at MRGPRX2 [1] was 0.1 to 100 nM each time.

Regarding `O=C(N[C@H]1CC[C@H](O)CC1)N1CC(CNc2cc(C(F)(F)F)nc3cc(C(F)(F)F)nn23)(c2ccc(F)c(F)c2)C1` [Example 100, 3-(((2,5-Bis(trifluoromethyl)pyrazolo[1,5-a]pyrimidin-7-yl)amino)methyl)-3-(3,4-difluorophenyl)-N-((1r,4r)-4-hydroxycyclohexyl)azetidine-1-carboxamide], the IC50 at MRGPRX2 [3] and at MRGPRX2 [1] was 0.1 to 100 nM in each case.

Regarding `[2H]C([2H])([2H])C([2H])([2H])c1cc(NCC2(c3ccc(F)cc3)CN(C(N)=O)C2)n2nc(C(F)(F)F)cc2n1` [Example 111, 3-(((5-(Ethyl-d5)-2-(trifluoromethyl)pyrazolo[1,5-a]pyrimidin-7-yl)amino)methyl)-3-(4-fluorophenyl)azetidine-1-carboxamide], the IC50 at MRGPRX2 [3] and at MRGPRX2 [1] was 0.1 to 100 nM throughout.

Turning to `Cn1ccc(N2CC(CNc3cc(C(F)(F)F)nc4cc(C(F)(F)F)nn34)(c3ccc(F)cc3)C2)nc1=O` [Example 90, 4-(3-(((2,5-Bis(trifluoromethyl)pyrazolo[1,5-a]pyrimidin-7-yl)amino)methyl)-3-(4-fluorophenyl)azetidin-1-yl)-1-methylpyrimidin-2(1H)-one], the IC50 on MRGPRX2 [3] and on MRGPRX2 [1] was 0.1 to 100 nM in each case.

Consider `O=C(N[C@H]1CC[C@H](O)CC1)N1CC(CNc2cc(C(F)(F)F)nc3cc(C(F)(F)F)nn23)(c2ccc(F)cn2)C1` [Example 99, 3-(((2,5-Bis(trifluoromethyl)pyrazolo[1,5-a]pyrimidin-7-yl)amino)methyl)-3-(5-fluoropyridin-2-yl)-N-((1r,4r)-4-hydroxycyclohexyl)azetidine-1-carboxamide], for which the IC50 on MRGPRX2 [3] and on MRGPRX2 [1] was 0.1 to 100 nM each time.

The record behind these values is patent US20250084087A1, “BICYCLIC HETEROCYCLES AS MRGPRX2 ANTAGONISTS” (Incyte Corporation, priority 2023, published 2025).
